Source: patent US11168086B2, “Methods of synthesizing pyrazine compounds” (Hoffmann-La Roche Inc., priority 2015, dated 2021)

Tested on: HBV
Test: HBV inhibition assay: anti-HBV activity in vitro in HepG2.2.15 cells (extracellular HBV DNA by qPCR)
Format: cell-based
Conditions: five days after compound treatment, extracellular HBV DNA in culture supernatant by qPCR, concentration at which HBV replication is inhibited by 50%
How it was run: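 HepG2.2.15 cells (stably carrying HBV genome) treated with half-log serially diluted compounds at 0.5% DMSO final for five days. Extracellular HBV DNA in supernatant quantified by qPCR after Proteinase K digestion; EC50 is concentration giving 50% inhibition of replication.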

SMILES | EC50 (Hepatitis B virus, 120 h) [nM] | EC50 [nM]
COCC1CC(=O)N(c2cnn3c2CN(C(=O)Nc2cc(F)c(F)c(F)c2)[C@@H](C)C3)C1 (stereo partly drawn) [Example 299, (6S)-3-[4-(methoxymethyl)-2-oxo-pyrrolidin-1-yl]-6-methyl-N-(3,4,5-trifluorophenyl)-6,7-dihydro-4H-pyrazolo[1,5-a]pyrazine-5-carboxamide] | 80 | 
C[C@H]1Cn2ncc(N3CN(c4ncccn4)CC3=O)c2CN1C(=O)Nc1cc(F)c(F)c(F)c1 [Example 281, (6S)-6-methyl-3-(5-oxo-3-pyrimidin-2-yl-imidazolidin-1-yl)-N-(3,4,5-trifluorophenyl)-6,7-dihydro-4H-pyrazolo[1,5-a]pyrazine-5-carboxamide] | 52 | 
C[C@H]1Cn2ncc(N3CC4(CCC4)C(O)C3=O)c2CN1C(=O)Nc1cc(F)c(F)c(F)c1 (stereo partly drawn) [Example 422, (6S)-3-(8-hydroxy-7-oxo-6-azaspiro[3.4]octan-6-yl)-6-methyl-N-(3,4,5-trifluorophenyl)-6,7-dihydro-4H-pyrazolo[1,5-a]pyrazine-5-carboxamide] | 65 | 
C[C@H]1Cn2ncc(N3CC(C(=O)N(C)C)CC3=O)c2CN1C(=O)Nc1cc(F)c(F)c(F)c1 (stereo partly drawn) [Example 390, (6S)-3-[4-(dimethylcarbamoyl)-2-oxo-pyrrolidin-1-yl]-6-methyl-N-(3,4,5-trifluorophenyl)-6,7-dihydro-4H-pyrazolo[1,5-a]pyrazine-5-carboxamide] | 103 | 
CC1CCN(c2cnn3c2CN(C(=O)Nc2ccc(F)c(Cl)c2)[C@@H](C)C3)C1=O (stereo partly drawn) [Example 297, (6S)—N-(3-chloro-4-fluoro-phenyl)-6-methyl-3-(3-methyl-2-oxo-pyrrolidin-1-yl)-6,7-dihydro-4H-pyrazolo[1,5-a]pyrazine-5-carboxamide] | 68 | 
CC1Cn2ncc(N3CCCC3=O)c2CN1C(=O)Nc1cc(F)c(F)c(F)c1 (stereo not drawn) [Example 183, 6-methyl-3-(2-oxopyrrolidin-1-yl)-N-(3,4,5-trifluorophenyl)-6,7-dihydro-4H-pyrazolo[1,5-a]pyrazine-5-carboxamide] | 68 | 
Cc1cnn(-c2cnn3c2CN(C(=O)Nc2ccc(F)c(Cl)c2)C(C)C3)c1 (stereo not drawn) [Example 199, N-(3-chloro-4-fluoro-phenyl)-6-methyl-3-(4-methylpyrazol-1-yl)-6,7-dihydro-4H-pyrazolo[1,5-a]pyrazine-5-carboxamide] | 30 | 
CC1Cn2ncc(C3CCCC3)c2CN1C(=O)Nc1ccnc(Cl)c1 (stereo not drawn) [Example 96, N-(2-chloro-4-pyridyl)-3-cyclopentyl-6-methyl-6,7-dihydro-4H-pyrazolo[1,5-a]pyrazine-5-carboxamide] | 72 | 
C[C@H]1Cn2ncc(N3CC(c4ccccc4)C(O)C3=O)c2CN1C(=O)Nc1cc(F)c(F)c(F)c1 (single isomer, unassigned) [Example 438-4] |  | 10
